Reference: publication PMC10057893, “Synthesis and Biological Evaluation of New Schiff Bases Derived from 4-Amino-5-(3-fluorophenyl)-1,2,4-triazole-3-thione” (Molecules, 2023)
≈ marks a conversion by molar mass, not a printed value. Read-outs that look alike come from different tables or passages of the source.

Assays:
MDA-MB-231 = experiment: MTT cell viability assay; format: cell-based, human; conditions: for IC50: Homo sapiens, MDA-MB-231, MTT, read-out: Cytotoxic activity IC50
Method: (§1) All the cell lines were purchased from the American Type Culture Collection (ATCC, Rockville, MD, USA) and cultured in strictly defined conditions according to the recommended ATCC protocol. The PC3 cells were cultured in RPMI 1640 (Roswell Park Memorial Institute, Biowest SAS, Nuaillé, France), while the MDA-MB-231 and HaCaT cells were maintained in DMEM (Dulbecco’s Modified Eagle’s Medium, Biowest SAS, Nuaillé, France) supplemented with 1% streptomycin and penicillin and in 10% heat-inactivated fetal bovine serum (FBS, Gibco BRL San Francisco, CA, USA) with 1% streptomycin and penicillin. The cells were incubated in a 37 °C/5% CO2 humidified incubator. They were cultured until 80–90% confluence was achieved. Then, they were harvested by treatment with 0.25% trypsin-0.02% EDTA (Gibco BRL, San Francisco, CA, USA) and used in the experiments. Untreated cells were used as a control. […] After 24 h of incubation, the culture medium was replaced with a fresh medium. […] Then, the medium was aspirated and formed formazan crystals were solubilized by adding isopropanol-DMSO mixture (1:1 vol). The intensity of the dissolved crystals was measured using a UVM 340 reader (ASYS Hitech GmbH, Eugendorf, Austria) at a wavelength of 570 nm. Cell viability was estimated by the percentage of MTT reduction in cells to which the tested compounds were added, compared to the control sample, where only the medium was added. The experiments were repeated three times. The IC50 was calculated using GraphPad Prism 9.0.0 (GraphPad Software).

PC3 = experiment: MTT cell viability assay; format: cell-based, human; conditions: for IC50: Homo sapiens, PC-3, PC3, MTT, read-out: Cytotoxic activity IC50
Method: as §1

[1] = tested on: Staphylococcus epidermidis ATCC 12228; experiment: Broth microdilution MIC/MBC, antibacterial; format: cell-based; conditions: ATCC12228
Method: (§2) The minimal inhibitory concentration (MIC) was determined with the microdilution technique using 96-well polystyrene microplates (Medlab, Poland), as indicated by the European Committee on Antimicrobial Susceptibility Testing (EUCAST) guidelines. In this process, stock solutions of each tested Schiff base dissolved in dimethylsulphoxide (DMSO, Stanlab, Poland) were used at a concentration of 50 mg/mL. Before in vitro antibacterial activity detection, the basic concentration of 1000 µg/mL of each compound was prepared with Mueller–Hinton broth medium (MHB, BioMaxima, Lublin, Poland). The experiment was prepared using Mueller–Hinton broth medium in 96-well microplates. A series of two-fold dilutions of the tested compounds in the concentration range from 0.49 to 1000 μg/mL was made in culture broth medium. Then, 2 μL of bacterial inoculum with a density of 0.5 McFarland standard was added to each well. Each well was filled with a total volume of 100 μL. Then, the microtiter plates were incubated for 18 ± 2 h at 35 °C. After the incubation, the results were spectrophotometrically determined in Biotek ELx800 (Biokom, Janki, Poland) at 600 nm (OD600). The lowest concentration of the tested compounds with the absence of bacterial growth was determined as an MIC. Three replicates for each strain and compound were performed.
(§3) After incubation, 5 μL of the broth media cultured with bacteria or fungi were removed from each well of the plates used in the MIC experiments. Next, they were culturd onto the surface of the MHA medium (BioMaxima, Lublin, Poland) plate for bacteria or MHA +2% glucose plate for yeasts. The inoculated plates were incubated in the conditions mentioned above. After incubation, a visual reading of MBC or MFC values was made. […] Three replicates for each strain and compound were performed.

[2] = tested on: Escherichia coli ATCC 25922; experiment: Broth microdilution MIC/MBC, antibacterial; format: cell-based; conditions: ATCC25922, Escherichia coli ATCC 25922
Method: as §2, §3

[3] = tested on: Bacillus subtilis ATCC 6633; experiment: Broth microdilution MIC/MBC, antibacterial; format: cell-based; conditions: ATCC6633
Method: as §2, §3

[4] = tested on: Staphylococcus aureus ATCC 6538; experiment: Broth microdilution MIC/MBC, antibacterial; format: cell-based; conditions: ATCC6538
Method: as §2, §3

[5] = tested on: Pseudomonas aeruginosa ATCC 27853; experiment: Broth microdilution MIC/MBC, antibacterial; format: cell-based; conditions: ATCC27853
Method: as §2, §3

[6] = tested on: Klebsiella pneumoniae ATCC 13883; experiment: Broth microdilution MIC/MBC, antibacterial; format: cell-based; conditions: ATCC13883, Klebsiella pneumoniae ATCC 13883
Method: as §2, §3

[7] = tested on: Micrococcus luteus ATCC 10240; experiment: Broth microdilution MIC/MBC, antibacterial; format: cell-based; conditions: ATCC10240
Method: as §2, §3

[8] = tested on: Candida krusei ATCC 14243; experiment: Broth microdilution MIC/MFC, antifungal; format: cell-based; conditions: Pichia kudriavzevii, ATCC14243
Method: (§4) To determine the antifungal activity of the newly synthesized Schiff bases against the reference strains of Candida spp., the broth microdilution method was used according to the EUCAST [52] and Clinical and Laboratory Standards Institute (CLSI) guidelines with some modifications to the medium. Before in vitro antifungal activity detection, the basic concentration of 1000 µg/mL of each compound was prepared with Mueller–Hinton broth (BioMaxima, Lublin, Poland) supplemented with 2% glucose (MHB+2% glucose). […] The final concentrations of the Schiff bases ranged from […] to 1000 µg/mL. All the reference strains of Candida spp. used were first subcultured to the Mueller–Hinton agar medium (BioMaxima, Lublin, Poland) with 2% glucose (MHA +2% glucose) at 37 °C for 24 h. Next, 2 µL of appropriate fungal suspensions was added to each well containing 100 µL of MHB + 2% glucose and the various concentrations of the tested Schiff bases.
as §3

[9] = tested on: Candida lusitaniae ATCC 3449; experiment: Broth microdilution MIC/MFC, antifungal; format: cell-based; conditions: Clavispora lusitaniae, ATCC3449
Method: as §4, §3

[10] = tested on: Candida tropicalis ATCC 1369; experiment: Broth microdilution MIC/MFC, antifungal; format: cell-based; conditions: ATCC1369
Method: as §4, §3

[11] = tested on: Candida albicans ATCC 10231; experiment: Broth microdilution MIC/MFC, antifungal; format: cell-based; conditions: for MIC: ATCC10231
Method: as §4, §3

[12] = tested on: Candida glabrata ATCC 90030; experiment: Broth microdilution MIC/MFC, antifungal; format: cell-based; conditions: Nakaseomyces glabratus, ATCC90030
Method: as §4, §3

[13] = tested on: Candida glabrata ATCC 15126; experiment: Broth microdilution MIC/MFC, antifungal; format: cell-based; conditions: Nakaseomyces glabratus, ATCC15126
Method: as §4, §3

Candida auris CDC B11903 = experiment: Broth microdilution MIC/MFC, antifungal; format: cell-based; conditions: Candidozyma auris, CDCB11903
Method: as §4, §3

MTT cell viability assay = format: cell-based; conditions: human, HaCaT cells (immortal keratinocytes), HaCaT normal cell line, read-out: Cytotoxic activity IC50 (converted)
Method: as §1

Row | SMILES | melting point [°C] | IC50 (MDA-MB-231; 72 h (table footnote)) [µM] | IC50 (MDA-MB-231; same value in µg/mL) [µg/mL] | IC50 (PC3; 72 h (table footnote)) [µM] | IC50 (PC3; same value in µg/mL) [µg/mL] | MIC [1] [µg/mL] | MIC [2] [µg/mL] | MIC [3] [µg/mL] | MIC [4] [µg/mL] | MIC [5] [µg/mL] | MIC [7] [µg/mL] | MIC [8] [µg/mL] | MIC [9] [µg/mL] | MIC [10] [µg/mL] | MIC [11] [µg/mL] | MIC [12] [µg/mL] | MIC [13] [µg/mL] | MIC (Candida auris CDC B11903) [µg/mL] | IC50 at 72 h (MTT cell viability assay; 72 h (table footnote)) [µM] | IC50 at 72 h (MTT cell viability assay; same value in µg/mL) [µg/mL] | also measured
1 | CCCOc1ccc(/C=N/n2c(-c3cccc(F)c3)n[nH]c2=S)cc1 [RO6, 5-(3-fluorofenylo)-4-[(4-propoxybenzylidene)amino]-2,4-dihydro-3H-1,2,4-triazole-3-thione] | 189 to 192 |  |  |  |  |  |  |  |  |  |  |  |  |  |  |  |  |  |  |  | 
2 | COc1cccc(C=Nn2c(-c3cccc(F)c3)n[nH]c2=S)c1 [RO11, 5-(3-fluorophenyl)-4-[(3-methoxybenzylidene)amino]-2,4-dihydro-3H-1,2,4-triazole-3-thione] | 203 to 204 | > 100 | > 38.8 | > 100 | > 38.8 | > 1000 | > 1000 | > 1000 | > 1000 | > 1000 | > 1000 | 1000 (≈ 3050 µM) | > 1000 | 1000 (≈ 3050 µM) | 500 (≈ 1520 µM) | 500 (≈ 1520 µM) | > 1000 | 1000 (≈ 3050 µM) | > 100 | > 38.8 | MIC [6]: > 1000 µg/mL; MFC ([11]; ATCC10231, read-out: MFC): 1000 µg/mL (≈ 3050 µM); MFC [12]: > 1000 µg/mL
3 | CCCCOc1ccc(C=Nn2c(-c3cccc(F)c3)n[nH]c2=S)cc1 [RO8, 4-[(4-butoxybenzylidene)amino]-5-(3-fluorophenyl)-2,4-dihydro-3H-1,2,4-triazole-3-thione] | 183 to 185 | > 100 | > 37 | > 100 | > 37 | 250 (≈ 675 µM) | 1000 (≈ 2700 µM) | 1000 (≈ 2700 µM) | 250 (≈ 675 µM) | > 1000 | 125 (≈ 337 µM) | > 1000 | > 1000 | > 1000 | 500 (≈ 1350 µM) | > 1000 | 500 (≈ 1350 µM) | > 1000 | > 100 | > 37 | MBC [1]: > 1000 µg/mL; MBC [4]: > 1000 µg/mL; MIC [6]: > 1000 µg/mL; MBC [7]: > 1000 µg/mL; MFC ([11]; ATCC10231, read-out: MFC): > 1000 µg/mL; MFC [13]: > 1000 µg/mL
4 | COc1ccc(C=Nn2c(-c3cccc(F)c3)n[nH]c2=S)cc1 [RO4, 5-(3-fluorophenyl)-4-[(4-methoxybenzylidene)amino]-2,4-dihydro-3H-1,2,4-triazole-3-thione] | 215 to 216 | > 100 | > 38.8 | > 100 | > 38.8 | 500 (≈ 1520 µM) | 1000 (≈ 3050 µM) | 1000 (≈ 3050 µM) | 500 (≈ 1520 µM) | > 1000 | 125 (≈ 381 µM) | 500 (≈ 1520 µM) | 1000 (≈ 3050 µM) | 1000 (≈ 3050 µM) | 62.5 (≈ 190 µM) | > 1000 | 1000 (≈ 3050 µM) | 1000 (≈ 3050 µM) | > 100 | > 38.8 | MBC [1]: > 1000 µg/mL; MBC [4]: > 1000 µg/mL; MBC [5]: > 1000 µg/mL; MIC [6]: 1000 µg/mL (≈ 3050 µM); MBC [7]: > 1000 µg/mL; MFC [8]: > 1000 µg/mL; MFC [11]: >1000 µg/mL; MFC ([11]; ATCC10231, read-out: MFC): > 1000 µg/mL
5 | Cc1ccc(C=Nn2c(-c3cccc(F)c3)n[nH]c2=S)cc1 [RO1, 5-(3-fluorophenyl)-4-[(4-methylbenzylidene)amino]-2,4-dihydro-3H-1,2,4-triazole-3-thione] | 227 to 230 | > 100 | > 31.2 | > 100 | > 31.2 | > 1000 | > 1000 | > 1000 | > 1000 | > 1000 | > 1000 | > 1000 | > 1000 | > 1000 | 250 (≈ 800 µM) | > 1000 | > 1000 | > 1000 | > 100 | > 31.2 | MIC [6]: > 1000 µg/mL; MFC ([11]; ATCC10231, read-out: MFC): > 1000 µg/mL
6 | O=[N+]([O-])c1ccc(C=Nn2c(-c3cccc(F)c3)n[nH]c2=S)cc1 [RO3, 5-(3-fluorophenyl)-4-[(4-nitrobenzylidene)amino]-2,4-dihydro-3H-1,2,4-triazole-3-thione] | 230 to 231 | > 100 | > 34.3 | > 100 | > 34.3 | > 1000 | > 1000 | > 1000 | > 1000 | > 1000 | > 1000 | 1000 (≈ 2910 µM) | 1000 (≈ 2910 µM) | 500 (≈ 1460 µM) | 500 (≈ 1460 µM) | > 1000 | 1000 (≈ 2910 µM) | 1000 (≈ 2910 µM) | > 100 | > 34.3 | MIC [6]: > 1000 µg/mL
7 | Cc1cccc(C=Nn2c(-c3cccc(F)c3)n[nH]c2=S)c1 [RO9, 5-(3-fluorophenyl)-4-[(3-methylbenzylidene)amino]-2,4-dihydro-3H-1,2,4-triazole-3-thione] | 232 to 234 | > 100 | > 31.2 | > 100 | > 31.2 | 250 (≈ 800 µM) |  | 500 (≈ 1600 µM) | 125 (≈ 400 µM) | > 1000 | 125 (≈ 400 µM) | > 1000 | > 1000 | > 1000 | 1000 (≈ 3200 µM) | > 1000 | > 1000 | > 1000 | > 100 | > 31.2 | MBC [1]: > 1000 µg/mL; MBC [3]: > 1000 µg/mL; MBC [4]: > 1000 µg/mL; MBC [7]: > 1000 µg/mL; MFC ([11]; ATCC10231, read-out: MFC): > 1000 µg/mL
8 | COc1cccc2c1C(=O)c1c(O)c3c(c(O)c1C2=O)C[C@@](O)(C(=O)CO)C[C@@H]3O[C@H]1C[C@H](N)[C@H](O)[C@H](C)O1 [Doxorubicin, reference compound] |  | 0.83 |  | 0.3 |  |  |  |  |  |  |  |  |  |  |  |  |  |  | 0.3 |  | SI (Selectivity Index) (MDA-MB-231; IC50 normal cell line (HaCaT)/IC50 MDA-MB-231): 0.36; SI (Selectivity Index) (PC3; IC50 normal cell line (HaCaT)/IC50 PC3): 1
